Data as given in PubChem BioAssay (NCI).
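Step 1: Grow cells in 96-well plates. Step 2: Expose to compound for 48 hours at 5 concentrations. Step 3: Interpolate endpoints linearly; if unreached, use highest concentration. Abbreviation: GI50, concentration required for 50% inhibition of growth. TGI is the concentration that stops growth completely.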

What was measured:
Assay in all cases: DTP human tumour cell line panel, 48 h
A549 NSCLC = test system: A549 NSCLC
COLO 205 colon = test system: COLO 205 colon
K-562 leukemia = test system: K-562 leukemia
KM12 colon = test system: KM12 colon
MOLT-4 leukemia = test system: MOLT-4 leukemia
NCI-H460 lung = test system: NCI-H460 lung
RXF 393 renal = test system: RXF 393 renal
U251 CNS = test system: U251 CNS
SW-620 colon = test system: SW-620 colon

| Compound | TGI (A549 NSCLC) [µM] | TGI (COLO 205 colon) [µM] | TGI (K-562 leukemia) [µM] | TGI (KM12 colon) [µM] | TGI (MOLT-4 leukemia) [µM] | TGI (NCI-H460 lung) [µM] | TGI (RXF 393 renal) [µM] | TGI (U251 CNS) [µM] | TGI (SW-620 colon) [µM] | GI50 (A549 NSCLC) [µM] | GI50 (COLO 205 colon) [µM] | GI50 (KM12 colon) [µM] | GI50 (MOLT-4 leukemia) [µM] | GI50 (NCI-H460 lung) [µM] | GI50 (SW-620 colon) [µM] | GI50 (U251 CNS) [µM] | GI50 (K-562 leukemia) [µM] | GI50 (RXF 393 renal) [µM] |
| --- | --- | --- | --- | --- | --- | --- | --- | --- | --- | --- | --- | --- | --- | --- | --- | --- | --- | --- |
| CCCCC#C[I+]c1ccccc1 | 33.8 | 28.7 | 40.3 | 27.7 | 23.9 | 26.9 | 36.9 | 29.9 |  |  |  |  |  |  |  |  |  |  |
| CC(C)(C)OC(=O)N[C@H]1CCN(C2CCCCC2)C1=O | > 100 | > 100 | > 100 |  | > 100 | > 100 |  | > 100 | > 100 |  |  |  |  |  |  |  |  |  |
| O=C(NC(=O)c1ccccc1[N+](=O)[O-])Nc1ccc(Oc2ncc(Br)cn2)c(Cl)c1 | > 100 | 2.22 |  |  |  |  | 0.0321 | > 64.4 |  | < 0.0248 | < 0.0188 | < 0.0196 | < 0.0222 | < 0.0197 | < 0.0187 | < 0.0185 |  |  |
| O=C1CCCSC(=O)N1Cc1ccccc1 | > 100 | > 100 |  | > 100 | > 100 | > 100 | > 100 |  | > 100 |  |  |  |  |  |  |  |  |  |
| COc1cc2c(c(OC)c1OC)C(=O)[C@@H]1[C@H]2N1C(N)=O | > 100 | > 100 | > 100 | > 100 | > 100 | > 100 | > 100 | > 100 | > 100 |  |  |  |  |  |  |  |  |  |
| CCC(C(=O)O)c1ccc(OC)cc1 (stereo unspecified) | > 100 | > 100 | > 100 | > 100 | > 100 | > 100 | > 100 | > 100 | > 100 |  |  |  |  |  |  |  |  |  |
| O=C1/C(=C/c2ccccc2)N=C2Sc3c(nc[nH]c3=O)N12 | > 100 | > 100 | 83.5 | > 100 | > 100 |  | > 100 | > 100 | > 100 |  |  |  |  |  |  |  |  |  |
| O=C(CCN1CCCCC1)C(=Cc1ccccc1)C(=O)CCN1CCCCC1 | > 100 | > 76.4 | > 55.2 | > 100 | 42.3 | > 100 | 34.3 | > 100 |  |  | 2.62 |  | 4.32 |  | 1.76 | 3.04 | 3.46 | 16.9 |
| CCOC(=O)c1csc(NC(=O)CN2CCOCC2)n1 | > 100 | > 100 | > 100 | > 100 | 48.5 | > 100 | > 100 | > 100 | > 100 |  |  |  |  |  |  |  |  |  |
| N#CCCC1C(C#N)C2(Cl)CC1(Cl)C(Cl)=C2Cl (stereo unspecified) | > 10 | > 10 | > 10 | > 10 | > 10 | > 10 | > 10 | > 10 | > 10 |  |  |  |  |  |  |  |  |  |
| CC1CCC(n2c3cnccc3c3cnc(Nc4ccc5c(n4)CCN(C(=O)CO)C5)nc32)CC1 (stereo unspecified) | > 100 |  |  | > 100 | > 100 | > 100 |  | > 100 | > 100 | 0.882 |  | 0.0812 | 0.211 | 0.422 | 0.278 | 0.478 |  |  |
| O=C1c2ccccc2-c2c1c1ccccc1c(=O)n2CCNCCNCCNCCn1c2c(c3ccccc3c1=O)C(=O)c1ccccc1-2 |  | > 20.3 |  | 3.22 |  | > 100 |  |  | > 100 |  | 1.76 | 0.669 |  | 0.0707 | 0.194 |  | 0.253 |  |
| COc1ccc2c(c1)/C(=C/CCN(C)C)c1ccccc1S2 | > 100 | 38 | > 100 | > 100 | > 100 | > 100 | > 100 | > 100 | > 100 |  |  |  |  |  |  |  |  |  |
| COC(=O)c1c(C)cccc1C1CN=NC12Cc1ccc(C)cc1C2=O (stereo unspecified) | > 100 |  | > 100 | > 100 | 84.7 | 28.2 | > 100 | > 100 | > 100 |  |  |  |  |  |  |  |  |  |
| O=C1CCCc2cc3c(cc21)CC1(Cc2ccccc2C1)C3 | 43.3 | 5.11 | 7.74 | 13.7 | 19.3 |  | 82.5 | 64 |  |  |  |  |  |  |  |  |  |  |
| C[C@]12CCC(O)CC1=CC[C@@H]1[C@@H]2CC[C@]2(C)C(=O)[C@H](n3ccnc3)C[C@@H]12 (stereo partly specified) | > 100 | 71 | > 100 | > 100 | 53.1 | > 100 | > 100 | > 100 | > 100 |  |  |  |  |  |  |  |  |  |
| CC(C)CCS(=O)(=O)OCCCCOS(=O)(=O)CCC(C)C | > 100 | > 100 | > 100 | > 100 | > 100 | > 100 | > 100 | > 100 | > 100 |  |  |  |  |  |  |  |  |  |
| c1ccc(N=c2sc3ccccc3nc2Nc2ccccc2)cc1 | > 100 | > 100 | > 100 | > 100 | > 100 | > 100 | > 100 | > 100 | > 100 |  |  |  |  |  |  |  |  |  |
| C=C(C)C(=O)OC1C/C(CO)=C\C(O)C/C(C)=C/C2OC(=O)C(=C)C21 (stereo unspecified) | > 100 | 38.3 | 58.2 | 38.8 | 56.2 | 35 |  | > 100 | 33.3 |  |  |  |  |  |  |  |  |  |
